Results on three compounds are retold here after patent publication US20240368406A1, “STABLE LIQUID PHANTOM FOR NEAR-INFRARED FLUORESCENCE VERIFICATION” (SURGVISION GMBH, priority 2021, published 2024).

Each structure is given as a SMILES string.

For data set [1] the following is noted: cited from earlier work.
A short description of data set [2]: Stability of the phantom solutions at +2-8° C. (residual absorbance, UV/VIS). Type of data set: physicochemical. The note with it: +2-8° C. How it is done: Several stability studies were performed to evaluate the effect of different buffers, additives such as excipients or preservatives, and storage conditions on the dye formulation. In particular the stability of the formulations after storage at +2-8° C. in a refrigerator was firstly investigated.
(§1) Stability was measured as reduction in the absorbance at the maximum wavelength of the dye acquired using a UV/VIS spectrophotometer, denoting reduction of the dye monomer content in solution. All the results were then reported as residual percentage vs the baseline (T=0), wherein at time=0 the percentage is 100%. A decrease in absorbance is associated with the reduction of the concentration of the dye in the formulation buffer, indicating low stability and degradation of the main chromophore species.
In the Tables below the residual absorbance of different dyes, i.e. […] and S0456, in some representative organic buffering solutions is reported after storage of the formulations at +2-8° C.

A short description of data set [3]: Stability of the phantom solutions at +2-8° C. in the presence of additives (residual absorbance). Type of data set: physicochemical. As to the method:
as §1
The effect of the presence of an additive on the stability of the formulations of the invention has been also investigated.
The preparation of the above buffers is described below:
50 mM HEPES (pH 7.4)+0.04% Tween 20: to prepare 100 mL of buffering solution, 1.19 g of HEPES were dissolved in 80 mL of water; 40 μL of Tween 20 were added and the pH was adjusted to 7.4 with 0.1 M HCl. The buffering solution was then brought to 100 mL volume with water and filtered on 0.22 μm membrane in sterile conditions.
50 mM HEPES (PH 7.4)+0.02% Sodium Azide: to prepare 100 mL of buffering solution, 1.19 g of HEPES and 20 mg of Sodium Azide were dissolved in 80 mL of water and the pH was adjusted to 7.4 with 0.1 M HCl. The buffering solution was then brought to 100 mL volume with water and filtered on 0.22 μm membrane in sterile conditions.
10 mM HEPES (PH 7.0)+10% EtOH: to prepare 100 mL of buffering solution, 0.24 g of HEPES were dissolved in 80 mL of water and the pH was adjusted to 7.0 with 0.1 M HCl.
Then, 10 mL of 100% Ethanol were added. The buffering solution was then brought to 100 mL volume with water and filtered on 0.22 μm membrane in sterile conditions.
Analogous solutions were prepared with the same procedure for MOPS, BES and TRICINE buffers.

The nature of data set [4]: Stability of the phantom solutions at 25° C. (residual absorbance). As to conditions: storage at 25° C. in dark. It is filed as physicochemical. As to the method:
as §1
The stability of the formulations under stressed conditions was also investigated.

Data set [5] can be described thus: Stability of the phantom solutions at +2-8° C. during long-term storage (residual absorbance). Type of data set: physicochemical. As to conditions: 3 μM dye in HEPES 50 mM, pH 7.4, +2-8° C. protected from light. How it is done:
Stability was measured as reduction in the absorbance at the maximum wavelength of the dye acquired using a UV/VIS spectrophotometer, denoting reduction of the dye monomer content in solution. […] A decrease in absorbance is associated with the reduction of the concentration of the dye in the formulation buffer, indicating low stability and degradation of the main chromophore species. The stability of the formulations under long-term storage conditions was also investigated. In particular, samples of 3 μM IRDye […] and 3 μM IRDye 800BK dissolved in HEPES buffer were stored refrigerated at +2-8° C. protected from light exposure for at least 6 months. For the long-term stability study at 2-8° C., samples of.

With `O=S(=O)(O)CCN(CCO)CCO` [BES, 2-[bis(2-hydroxyethyl)amino]ethanesulfonic acid], the “pKa (20° C.)” value in data set [1] is 7.2.

For the compound `CC1(C)C(=CC=C2CCCC(C=CC3=[N+](CCCCCC(=O)[O-])c4ccc(S(=O)(=O)[O-])cc4C3(C)C)=C2Oc2ccc(S(=O)(=O)[O-])cc2)N(CCCCS(=O)(=O)[O-])c2ccc(S(=O)(=O)[O-])cc21.[Na+].[Na+].[Na+].[Na+]` [IRDye 800CW], the Residual absorbance percentage in data set [2] (3 μM dye in HEPES (50 mM, pH 7.4), 1 week (Table II)) was determined as 100.9%; in data set [2] (3 μM dye in HEPES (50 mM, pH 7.4), 2 weeks (Table II)), 100.3%; in data set [2] (3 μM dye in HEPES (50 mM, pH 7.4), 4 weeks (Table II)), 99.3%; in data set [2] (3 μM dye in MES (50 mM, pH 6.2), 1 week), 99.4%; in data set [2] (3 μM dye in MES (50 mM, pH 6.2), 2 weeks) it was 96.7%; in data set [2] (3 μM dye in MES (50 mM, pH 6.2), 4 weeks), 93.2%. In addition, the Residual absorbance percentage in data set [2] (3 μM dye in MOPS (50 mM, pH 7.0), 1 week (Table II)) was found to be 99.3%; in data set [2] (3 μM dye in MOPS (50 mM, pH 7.0), 2 weeks (Table II)) it was 98.0%; in data set [2] (3 μM dye in MOPS (50 mM, pH 7.0), 4 weeks (Table II)) it was 95.2%; in data set [2] (3 μM dye in PBS (50 mM, pH 7.4), 1 week), 100%; in data set [2] (3 μM dye in PBS (50 mM, pH 7.4), 2 weeks), 92.9%; in data set [2] (3 μM dye in PBS (50 mM, pH 7.4), 4 weeks), 79.1%. The Residual absorbance percentage result in data set [2] (3 μM dye in PBS (50 mM, pH 7.4), 4 weeks, listed as IRDye 8000W) is given as “lower than 80%”; in data set [2] (3 μM dye in TRICINE (50 mM, pH 8.0), 1 week (Table II)) it was 100.5%; in data set [2] (3 μM dye in TRICINE (50 mM, pH 8.0), 2 weeks (Table II)), 99.9%; in data set [2] (3 μM dye in TRICINE (50 mM, pH 8.0), 4 weeks (Table II)), 99.3%; in data set [3] (3 μM dye in HEPES (50 mM, pH 7.4) +0.02% sodium azide, +2-8° C., 1 week), 96.9%; in data set [3] (3 μM dye in HEPES (50 mM, pH 7.4) +0.02% sodium azide, +2-8° C., 2 weeks), 92.4%. Also, the Residual absorbance percentage in data set [3] (3 μM dye in HEPES (50 mM, pH 7.4) +0.02% sodium azide, +2-8° C., 4 weeks) is 89.1%; in data set [3] (3 μM dye in HEPES (50 mM, pH 7.4) +0.04% Tween 20, +2-8° C., 1 week) it was 100.5%; in data set [3] (3 μM dye in HEPES (50 mM, pH 7.4) +0.04% Tween 20, +2-8° C., 2 weeks) it was 95.8%; in data set [3] (3 μM dye in HEPES (50 mM, pH 7.4) +0.04% Tween 20, +2-8° C., 4 weeks), 92.4%; in data set [3] (3 μM dye in TRICINE (50 mM, pH 8.0) +0.02% sodium azide, +2-8° C., 1 week), 97.7%; in data set [3] (3 μM dye in TRICINE (50 mM, pH 8.0) +0.02% sodium azide, +2-8° C., 2 weeks), 93.0%. The Residual absorbance percentage in data set [3] (3 μM dye in TRICINE (50 mM, pH 8.0) +0.02% sodium azide, +2-8° C., 4 weeks) turned out to be 89.8%; in data set [3] (3 μM dye in TRICINE (50 mM, pH 8.0) +0.04% Tween 20, +2-8° C., 1 week), 97.7%; in data set [3] (3 μM dye in TRICINE (50 mM, pH 8.0) +0.04% Tween 20, +2-8° C., 2 weeks), 93.0%; in data set [3] (3 μM dye in TRICINE (50 mM, pH 8.0) +0.04% Tween 20, +2-8° C., 4 weeks), 89.8%; in data set [4] (3 μM dye in HEPES (50 mM), 1 week), 100.9%; in data set [4] (3 μM dye in HEPES (50 mM), 2 weeks) it was 98.4%. Moreover, the Residual absorbance percentage in data set [4] (3 μM dye in MOPS (50 mM), 1 week) turned out to be 99.7%; in data set [4] (3 μM dye in MOPS (50 mM), 2 weeks) it was 97.3%; in data set [5] (1 month), 99.3%; in data set [5] (3 months), 97.7%; in data set [5] (6 months), 96.2%.

Regarding `CC1(C)C(/C=C/C2=C(Cl)C(=C/C=C3/N(CCCCS(=O)(=O)[O-])c4ccc(S(=O)(=O)[O-])cc4C3(C)C)/CCC2)=[N+](CCCCS(=O)(=O)[O-])c2ccc(S(=O)(=O)[O-])cc21.[Na+].[Na+].[Na+]` [S0456], the Residual absorbance percentage in data set [2] (3 μM dye in HEPES (50 mM, pH 7.4), 1 week (Table III)) is recorded as 99.0%; in data set [2] (3 μM dye in HEPES (50 mM, pH 7.4), 2 weeks (Table III)) it was 98.5%; in data set [2] (3 μM dye in HEPES (50 mM, pH 7.4), 4 weeks (Table III)), 96.9%; in data set [2] (3 μM dye in MOPS (50 mM, pH 7.0), 1 week (Table III)) it was 98.8%; in data set [2] (3 μM dye in MOPS (50 mM, pH 7.0), 2 weeks (Table III)) it was 98.5%; in data set [2] (3 μM dye in MOPS (50 mM, pH 7.0), 4 weeks (Table III)), 96.1%. Besides, the Residual absorbance percentage in data set [2] (3 μM dye in TRICINE (50 mM, pH 8.0), 1 week (Table III)) was determined as 99.7%; in data set [2] (3 μM dye in TRICINE (50 mM, pH 8.0), 2 weeks (Table III)), 98.7%; in data set [2] (3 μM dye in TRICINE (50 mM, pH 8.0), 4 weeks (Table III)) it was 97.9%.
